{"source": "patent US9744160B2", "about": "“Pharmaceutical compositions comprising sulbactam and beta-lactamase inhibitor” (WOCKHARDT LIMITED, priority 2011, dated 2017)", "system": "A. baumanii 13305", "test": "MIC by agar dilution (CLSI)", "format": "cell-based", "procedure": "In a typical study, overnight grown bacterial cultures were diluted appropriately and inoculated on the agar media containing doubling dilutions of composition or pharmaceutically active ingredients disclosed herein. Observation for growth or no growth was performed after 16-20 hours of incubation at 35±2° C. in ambient air. The overall procedure was performed as per Clinical and Laboratory Standards Institute (CLSI) recommendations (Clinical and Laboratory Standards Institute (CLSI), performance Standards for Antimicrobial Susceptibility Testing, 20th Informational Supplement, M 100-S20, Volume 30, No. 1, 2010)."}
{"smiles": "CO/N=C(\\C(=O)N[C@@H]1C(=O)N2C(C(=O)[O-])=C(C[N+]3(C)CCCC3)CS[C@H]12)c1csc(N)n1", "note": "[Cefepime]", "values": [{"measurement": "MIC of cefepime in presence of Sulbactam (4 to 8 mcg/ml)", "value": 4, "unit": "µg/mL"}]}
